Measurements reported in patent US12144864B2, “Tubulysins and protein-tubulysin conjugates” (Regeneron Pharmaceuticals, Inc., priority 2018, dated 2024).
“And” between values parts separate entries of the source, which are not always exact repeats. Identical values can stand only once. Like-named read-outs stand apart in the source and are kept apart here. Non-standard residues stand in square brackets, D forms with d. Residues, ends and D or L forms follow the SMILES beside them. *: point of attachment. Dolaproine = CO[C@@H]([C@@H]1CCCN1)[C@@H](C)C(=O)O; Dil = CC[C@H](C)[C@H](NC)[C@@H](CC(=O)O)OC; X1 = C[C@@H](N*)[C@@H](O)c1ccccc1; NMeV = CN[C@H](C(=O)O)C(C)C

Columns and labels:
[1] = system: HCT15 cells; assay: cells; format: cell-based, human; settings: for HCT-15 + verapamil % Kill / IC50 / HCT-15 % Kill: HCT15 cells; for HCT-15 + verapamil % Kill / HCT-15 % Kill: maximum % cell killing
Procedure, shortened: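 Five-day exposure of 1000 HCT15 cells/well to threefold payload dilutions, run both plus and minus verapamil (5 ug/mL) in RPMI with 10% FBS. ATP luminescence (CellTiter-Glo) gives viability; four-parameter logistic fit of 10 points yields IC50, and 100 − % viable at highest dose gives % kill.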

[2] = system: H69AR cells; assay: Cytotoxicity in panel of MDR cell lines, H69AR (72 h and 144 h); format: cell-based, human
Procedure, shortened: (§1)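 Cells were seeded at 1000 per well and grown overnight, then exposed to 1:3 serially diluted payloads for 72 h and 144 h. CellTiter-Glo reagent was added for 10 min at room temperature, and luminescence was read. IC50 values came from a four-parameter logistic fit.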

[3] = system: C4-2 cells; assay: Cell-based killing assay of payloads (CellTiter-Glo), C4-2 cells; design: species or system human; settings: 5-day incubation; for IC50: average ± SD where replicates; for C4-2 % Kill: at maximum concentration tested (100 − % viable cells)
Procedure, shortened: (§2)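 Viability readout is CellTiter-Glo luminescence after a 5-day exposure to 10-point, threefold-diluted payloads spanning 100 nM–[…], following overnight attachment of 4000 cells/well. Four-parameter logistic fit gives IC50 in M; % kill taken at highest concentration tested.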

[4] = system: C4-2 cells; assay: Cytotoxicity of anti-STEAP2 ADCs, payloads and reference compounds in C4-2 cells; format: cell-based, human; settings: for % kill: at maximum concentration tested; for IC50: top concentration 100 nM, 3-fold serial dilution
Experimental: (§3) To test the ability of the disclosed tubulysin payloads to kill human cell lines, an in vitro cytotoxicity assay was performed. In vitro cytotoxicity of the disclosed payloads, as well as reference compounds, were evaluated using the CellTiter-Glo Assay Kit (Promega, Cat #G7573), in which the quantity of ATP present is used to determine the number of viable cells in culture. For the assay, C4-2, HEK293, or T47D cells were seeded at 4000 cells/well on Nunclon white 96-well plates in complete growth medium (DME high glucose:Ham's F12 at 4:1, 10% FBS, 100 units/ml Penicillin, 100 ug/ml streptomycin, 53 ug/ml glutatmine, 10 ug/ml insulin, 220 ng/ml biotin, 12.5 pg/ml T3, 12.5 ug/ml Adenine, 4 ug/ml transferrin for C42 cells; DME high glucose, 10% FBS, 100 units/ml Penicillin, 100 ug/ml streptomycin, 53 ug/ml glutatmine for HEK293; RPMI, 10% FBS, 100 units/ml Penicillin, 100 ug/ml streptomycin, 53 ug/ml glutatmine, 10 ug/ml insulin, 10 mM HEPEs, 200 nM Sodium Pyruvate for T47D cells) and grown overnight at 37° C. in 5% CO2. For cell viability curves, 1:3 serially diluted payloads were added to the cells at final concentrations ranging from 100 nM to […], including a no treatment control group, and were then incubated for 5 days. After the 5-day incubation, cells were incubated at room temperature with 100 μL of CellTiter-Glo reagents for 10 minutes. Relative luminescence units (RLU) were determined on a Victor plate reader (PerkinElmer). The IC50 values were determined from a four-parameter logistic equation over a 10-point response curve (GraphPad Prism). All IC50 values are expressed in molar (M) concentration. The percent cell killing (% kill) at the maximum concentration tested was estimated from the following formula (100−% viable cells). Averages±standard deviation (SD) are included where replicate experiments were performed.
To further test the ability of the disclosed tubulysin payloads, reference compounds, and antibody drug conjugates using these payloads, a cytotoxicity assay was performed using C4-2 cells as described in this example (see above). For these studies, anti-STEAP2 antibodies were conjugated to select tubulysins payloads, and the compounds were tested at concentrations starting at 100 nM with 3-fold serial dilution. All IC50 values are expressed in nM concentration and the percent cell killing at the maximum concentration tested was estimated from the following formula (100−% viable cells).

[5] = system: HCT-15 cells; assay: Cytotoxicity in panel of MDR cell lines, HCT-15 (72 h and 144 h); format: cell-based, human
Procedure, shortened: as §1

[6] = system: HL60/MX2 cells; assay: Cytotoxicity in panel of MDR cell lines, HL60/MX2 (72 h and 144 h); format: cell-based, human
Procedure, shortened: as §1

[7] = system: MES-SA/MX2 cells; assay: Cytotoxicity in panel of MDR cell lines, MES-SA/MX2 (72 h and 144 h); format: cell-based, human
Procedure, shortened: as §1

[8] = system: T47D cells; assay: Cell-based killing assay of payloads (CellTiter-Glo), T47D cells; design: species or system human; settings: 5-day incubation
Procedure, shortened: as §2

[9] = system: HEK293 cells; assay: Cell-based killing assay of payloads (CellTiter-Glo), HEK293 cells; design: species or system human; settings: 5-day incubation
Procedure, shortened: as §2

[10] = system: HCT15/PRLR cells; assay: Cytotoxicity of anti-PRLR tubulysin ADCs and payloads in HCT15/PRLR cells with or without Verapamil; format: cell-based, human; settings: for IC50: Homo sapiens, HCT-15
Experimental: as §3
Bioassays were developed to assess the efficacy of an anti-PRLR antibody conjugated with the disclosed tubulysin payloads and reference payloads. It was developed to assess the activity of tubulysin payloads after internalization of an anti-PRLR-tubulysin ADC into cells, release of the payload, and subsequent cytotoxicity. For this assay, a HCT15 line was engineered to express human full length PRLR (accession #NP_000940.1). The resulting stable cell line is referred to herein as HCT15/PRLR. In vitro cytotoxicity of the disclosed payloads, reference compounds, and tested ADCs were evaluated similarly as described in this example using HCT15/PRLR cells with or without […] of Verapamil diluted in normal culture medium. The compounds were tested at concentrations starting at 100 nM with 3-fold serial dilution. All IC50 values are expressed in nM concentration and the percent cell killing (% kill) at the maximum concentration tested was estimated from the following formula (100−% viable cells).

[11] = with 5 ug/mL Verapamil, read-out: HCT-15 + verapamil IC50
[12] = at maximum concentration tested

CC[C@H](C)[C@@H]([C@@H](CC(=O)N1CCC[C@H]1[C@H](OC)[C@@H](C)C(=O)N[C@H](C)[C@@H](O)c1ccccc1)OC)N(C)C(=O)[C@@H](NC(=O)[C@@H](NC)C(C)C)C(C)C [MMAE, Monomethyl auristatin E, reference compound] (H-[NMeV]V[Dil][Dolaproine]-X1) was tested, and the “HCT-15 + verapamil % Kill” value ([1]; with 5 ug/mL Verapamil) was 98.4 ± 0.5%, the IC50 [1, 11] was 0.782 nM and the “HCT-15 % Kill” value ([1]; without Verapamil) was 97.1 ± 3.7%. For the same compound, the IC50 ([1]; without Verapamil, read-out: HCT-15 IC50) was 17.7 nM, the “HCT-15 IC50/HCT-15+Verapamil IC50 ratio” value ([1]; IC50 without Verapamil divided by IC50 with Verapamil) was 23.7 and the “HCT15 IC50/HCT-15 + Verapamil IC50” value ([1]; ratio of IC50 without Verapamil to IC50 with Verapamil) was 23.7 ± 12.0. The “H69AR % Kill 72 h” value ([2]; 72 h incubation) was 66.8%, the IC50 ([2]; 72 h incubation, read-out: H69AR IC50 72 h) was 0.923 nM and the “H69AR % Kill 144 h” value ([2]; 144 h incubation) was 92.7%. For the same compound, the IC50 ([2]; 144 h incubation, read-out: H69AR IC50 144 h) was 0.683 nM, the IC50 [3] was 0.287 nM and the “C4-2 % Kill” value [3] was 93.7% and 93.7 ± 2.5%. For the same compound, the “% kill” value [4] was 99%, the IC50 [4] was 0.22 nM and the “HCT-15 % Kill 72 h” value ([5]; 72 h incubation) was 93.7%. For the same compound, the IC50 ([5]; 72 h incubation, read-out: HCT-15 IC50 72 h) was 16.8 nM, the “HL60/MX2 % Kill 72 h” value ([6]; 72 h incubation) was 88.7% and the IC50 ([6]; 72 h incubation, read-out: HL60/MX2 IC50 72 h) was 0.418 nM. The “HL60/MX2 % Kill 144 h” value ([6]; 144 h incubation) was 99.6%, the IC50 ([6]; 144 h incubation, read-out: HL60/MX2 IC50 144 h) was 0.164 nM and the “MES-SA/MX2 % Kill 72 h” value ([7]; 72 h incubation) was 65.6%. For the same compound, the IC50 ([7]; 72 h incubation, read-out: MES-SA/MX2 IC50 72 h) was 37.3 nM, the “MES-SA/MX2 % Kill 144 h” value ([7]; 144 h incubation) was 58.1% and the IC50 ([7]; 144 h incubation, read-out: MES-SA/MX2 IC50 144 h) was 0.683 nM.

C#CCCCON(C(=O)[C@@H](NC(=O)[C@H]1CCCCN1C)[C@@H](C)CC)[C@H](C[C@@H](OC(C)=O)c1nc(C(=O)N[C@@H](Cc2ccc(N)cc2)CC(C)(C)C(=O)O)cs1)C(C)C [Ve, (4S)-4-({2-[(1R,3R)-1-(Acetyloxy)-4-methyl-3-[(2S,3S)-3-methyl-2-{[(2R)-1-methylpiperidin-2-yl]formamido}-N-(pent-4-yn-1-yloxy)pentanamido]pentyl]-1,3-thiazol-4-yl}formamido)-5-(4-aminophenyl)-2,2-dimethylpentanoic acid] was tested, and the “HCT-15 + verapamil % Kill” value ([1]; with 5 ug/mL Verapamil) was 98.2 ± 1.2%, the IC50 [1, 11] was 0.0654 nM and the “HCT-15 % Kill” value ([1]; without Verapamil) was 98.6 ± 0.7%. For the same compound, the IC50 ([1]; Homo sapiens, HCT-15, without Verapamil, read-out: HCT-15 IC50) was 0.273 nM, the “H69AR % Kill 72 h” value ([2]; 72 h incubation) was 96.6% and the “H69AR % Kill 144 h” value ([2]; 144 h incubation) was 99.5%. For the same compound, the IC50 ([2]; Homo sapiens, 72 h incubation, read-out: H69AR IC50 72 h) was 0.331 nM, the IC50 ([2]; Homo sapiens, 144 h incubation, read-out: H69AR IC50 144 h) was 0.559 nM and the IC50 ([3]; Homo sapiens, C4-2, 120 h) was < 0.047 nM. The “C4-2 % Kill” value [3] was 92.6%, the IC50 ([8]; Homo sapiens, T47D, 120 h) was 0.0731 nM and the “T47D % Kill” value [8, 12] was 69.8%. The IC50 ([4]; Homo sapiens) was 0.063 nM, the “% kill” value [4] was 99% and the IC50 ([9]; Homo sapiens, HEK293, 120 h) was 0.103 nM. The “HEK293 % Kill” value [9, 12] was 88.5%, the “HCT-15 % Kill 72 h” value ([5]; 72 h incubation) was 97.5% and the “HCT-15 % Kill 144 h” value ([5]; 144 h incubation) was 99.7%. For the same compound, the IC50 ([5]; Homo sapiens, 72 h incubation, read-out: HCT-15 IC50 72 h) was 0.0922 nM, the IC50 ([5]; Homo sapiens, 144 h incubation, read-out: HCT-15 IC50 144 h) was 0.158 nM and the “HL60/MX2 % Kill 72 h” value ([6]; 72 h incubation) was 98.3%. For the same compound, the “HL60/MX2 % Kill 144 h” value ([6]; 144 h incubation) was 100%, the IC50 ([6]; Homo sapiens, 72 h incubation, read-out: HL60/MX2 IC50 72 h) was < 0.015 nM and the IC50 ([6]; Homo sapiens, 144 h incubation, read-out: HL60/MX2 IC50 144 h) was < 0.015 nM. The “MES-SA/MX2 % Kill 72 h” value ([7]; 72 h incubation) was 98.9%, the “MES-SA/MX2 % Kill 144 h” value ([7]; 144 h incubation) was 100% and the IC50 ([7]; Homo sapiens, 72 h incubation, read-out: MES-SA/MX2 IC50 72 h) was 0.52 nM. It also gave an IC50 ([7]; Homo sapiens, 144 h incubation, read-out: MES-SA/MX2 IC50 144 h) of 0.734 nM, an IC50 ([10]; with Verapamil, read-out: IC50 (nM) on HCT15/PRLR w/ Verapamil) of 0.033 nM and an IC50 ([10]; without Verapamil, read-out: IC50 (nM) on HCT15/PRLR w/o Verapamil) of 0.203 nM. The “% kill on HCT15/PRLR w/ Verapamil” value ([10]; with Verapamil, at maximum concentration tested) was 99% and the “% kill on HCT15/PRLR w/o Verapamil” value ([10]; without Verapamil, at maximum concentration tested) was 99%.
